Converted amounts (≈) assume the structure as drawn. Where two headings read alike, the source gives them in different places. Where a SMILES comes first, the peptide text is derived from it. [ ]: non-standard residue; d: D form.
Columns and labels:
[1] = system: human RBCs; type: cell-based
Description: Human O+ erythrocytes were obtained from Interstate Blood Bank, Inc. Red blood cells were subjected to four or more cycles of centrifugation at 1000g with resuspension in fresh PBS. Following the final wash step, the supernatant was clear and colorless. RBC concentration was determined using a standard hemocytometer.
Peptide was serially diluted in PBS starting at a concentration of 100 μM. The final volume of peptide in each well was 50 μL. To each well, 50 μL of RBCs in PBS at 2 × 10^8 cells/mL was added. As a positive lysis control, 1% Triton was used. The mixtures were incubated at 37 °C for 1 h, after which they were centrifuged at 1000g for 5 min. After centrifugation, 10 μL of supernatant was transferred to 90 μL of DI H2O in a fresh 96-well plate. The absorbance of released hemoglobin at 410 nm was recorded, and the fractional hemolysis was calculated based on the 100 and 0% lysis controls. At least three independent experiments were performed. Results shown are averages.

[2] = system: WI-38 human fibroblast cells; assay: in vitro; type: cell-based
Description: The day before cytotoxicity experiments, the 10,000 cells/well were plated in a 96-well tissue-culture plate. […] To perform the cytotoxicity assay, media was removed from the wells and replaced with peptide solutions. […] The plate was read for SYTOX fluorescence every 5 min for an hour with an excitation wavelength of 504 nm and an emission wavelength of 523 nm. Percent cytotoxicity was calculated at 60 min using the 100 and 0% lysis controls. At least three independent experiments were averaged.

[3] = system: K. pneumoniae clinical isolates; assay: microbe, parasite or virus in culture; settings: Klebsiella pneumoniae
Description: (§1) Subcultures, prepared by inoculating 25 mL of fresh tryptic soy broth (TSB) with 200 μL of an overnight culture, were grown to log phase (OD600 = 0.3–0.6), after which cell counts were determined by measuring the OD600 (1.0 = 5 × 10^8 CFU/mL for E. coli, 4 × 10^8 CFU/mL for K. pneumoniae, 4 × 10^8 CFU/mL for P. aeruginosa, 1.5 × 10^8 CFU/mL for S. aureus). Bacterial cells were diluted to appropriate concentrations in TSB. We used the following clinical bacterial isolates of Klebsiella pneumoniae in this study: Strains KP6, KP46, NDM-1, KP396, and KP398 have been previously described.[43] ST58 strains C2, C3, and I2 are also described.[41] […] MRSA, […] S. aureus strain, is SAP400, a USA400 strain of community-acquired MRSA. […] The second independent set of K. pneumoniae isolates are previously described.[20],[21]
The antibiotics were serially diluted by a factor of 2:3 horizontally across 96-well plates from Corning, 25 μL per well. One column was reserved for controls. For the assays performed in the presence of RBC, type O+ human RBCs at 0 or 2.5 × 10^9 cells/mL were added in 50 μL aliquots to all wells. […] To assess bacterial growth in the assays with RBC, the OD600 was measured after a second-day inoculation with 10 μL of solution from the original plate added to 100 μL of sterile TSB followed by overnight incubation.
(§2) Experiments were repeated four to eight times independently, with pairs of replicate measurements on each 96-well plate. After overnight growth, optical densities were measured at 660 nm and the sterilized wells were identified by having O.D. < 0.08. Nonsterilized wells were nearly opaque with OD > 0.6. For each measurement, we recorded the largest dilution that sterilized the bacteria. Statistics are done on dilution numbers, rather than calculated concentrations, because only the former have normal distributions.

[4] = system: MRSA SAP400, a USA400 strain; assay: microbe, parasite or virus in culture; settings: Staphylococcus aureus, read-out: MIC, MRSA USA400
Description: as §1
(§3) The antibiotics were serially diluted by a factor of 2:3 horizontally across 96-well plates from Corning, 25 μL per well. One column was reserved for controls. For the assays performed in the presence of RBC, type O+ human RBCs at 0 or 2.5 × 10^9 cells/mL were added in 50 μL aliquots to all wells. Following a 30-min incubation, 50 μL of TSB, inoculated with 5 × 10^5 CFU/mL, was added to all wells, and plates were incubated overnight at 37 °C. Following overnight incubation at 37 °C, the OD600 was measured (values of less than 0.1 were considered sterilized). To assess bacterial growth in the assays with RBC, the OD600 was measured after a second-day inoculation with 10 μL of solution from the original plate added to 100 μL of sterile TSB followed by overnight incubation.
as §2

[5] = system: Pseudomonas aeruginosa clinical isolates; assay: microbe, parasite or virus in culture; settings: Pseudomonas aeruginosa
Description: as §1, §3, §2

[6] = system: Acinetobacter baumannii (PDR) Tulane isolate; assay: microbe, parasite or virus in culture; settings: read-out: MIC, AB (PDR)Tulane
[7] = system: 14 clinical isolates of resistant bacterial strains; assay: Broth dilution, summary over the 14 clinical isolates of the first set; type: cell-based; settings: statement for all 14 clinical isolates of the first set; read-out: MIC, all isolates (completely resistant)
Description: In Figure 4B, we plot the fraction of isolates sterilized as functions of antibiotic concentration.
as §1, §3

[8] = ATCC33495, read-out: MIC, KP ATCC 33495

| Structure (SMILES) | Hemolysis at 100 μM (fractional hemolysis) [1] | EC50 [2] | MIC [3, 8] | MIC ([3]; read-out: MIC, KP 6) | MIC ([3]; read-out: MIC, KP 46) | MIC ([3]; read-out: MIC, KP 398) | MIC ([3]; read-out: MIC, KP 2146NDM-1) | MIC ([3]; read-out: MIC, KP (CRE)) | MIC ([3]; read-out: MIC, KP ST258 C2) | MIC ([3]; read-out: MIC, KP ST258 C3) | MIC ([3]; read-out: MIC, KP ST258 I2) | MIC ([3]; read-out: MIC, KP ST396) | MIC [4] | MIC ([5]; read-out: MIC, PA(mucoid)) | MIC ([5]; read-out: MIC, PA(non-mucoid)) | MIC [6] | MIC [7] |
| --- | --- | --- | --- | --- | --- | --- | --- | --- | --- | --- | --- | --- | --- | --- | --- | --- | --- |
| CC(C)C[C@@H](NC(=O)[C@@H](CCCNC(=N)N)NC(=O)[C@@H](CCCNC(=N)N)NC(=O)[C@@H](C)NC(=O)[C@@H](Cc1c[nH]c2ccccc12)NC(=O)[C@@H](CCCNC(=N)N)NC(=O)[C@H](N)CCCNC(=N)N)C(=O)N[C@H](C)C(=O)N[C@H](Cc1ccccc1)C(=O)N[C@H](Cc1ccccc1)C(=O)N[C@H](CCCNC(=N)N)C(=O)N[C@H](CCCNC(=N)N)C(N)=O [D-CONGA-ΔA10] (H-[dR][dR][dW][dA][dR][dR][dL][dA][dF][dF][dR][dR]-NH2; N-terminus and C-terminus assumed) | 0.02 | 257 µM |  |  |  |  |  |  |  |  |  |  |  |  |  |  |  |
| CC(C)C[C@@H](NC(=O)[C@@H](CCCNC(=N)N)NC(=O)[C@@H](CCCNC(=N)N)NC(=O)[C@@H](Cc1c[nH]c2ccccc12)NC(=O)[C@@H](CCCNC(=N)N)NC(=O)[C@H](N)CCCNC(=N)N)C(=O)N[C@H](C)C(=O)N[C@H](Cc1ccccc1)C(=O)N[C@H](C)C(=O)N[C@H](Cc1ccccc1)C(=O)N[C@H](CCCNC(=N)N)C(=O)N[C@H](CCCNC(=N)N)C(N)=O [D-CONGA-ΔA4] (H-[dR][dR][dW][dR][dR][dL][dA][dF][dA][dF][dR][dR]-NH2; N-terminus and C-terminus assumed) | 0.02 | 143 µM |  |  |  |  |  |  |  |  |  |  |  |  |  |  |  |
| CC(C)C[C@@H](NC(=O)CNC(=O)[C@@H](CCCNC(=N)N)NC(=O)[C@@H](CCCNC(=N)N)NC(=O)[C@@H](C)NC(=O)[C@@H](Cc1c[nH]c2ccccc12)NC(=O)[C@@H](CCCNC(=N)N)NC(=O)[C@H](N)CCCNC(=N)N)C(=O)N[C@H](C)C(=O)N[C@H](Cc1ccccc1)C(=O)N[C@H](C)C(=O)N[C@H](Cc1ccccc1)C(=O)N[C@H](CCCNC(=N)N)C(=O)N[C@H](CCCNC(=N)N)C(N)=O [D-CONGA-G7] (H-[dR][dR][dW][dA][dR][dR]G[dL][dA][dF][dA][dF][dR][dR]-NH2; N-terminus and C-terminus assumed) | 0.07 | 235 µM |  |  |  |  |  |  |  |  |  |  |  |  |  |  |  |
| C[C@@H](O)[C@H]1C(=O)N2C(C(=O)O)=C(S[C@@H]3CN[C@H](C(=O)N(C)C)C3)[C@H](C)[C@H]12 [MEM, meropenem] |  |  | 0.2 µM (≈ 0.0767 µg/mL) | 0.2 µM (≈ 0.0767 µg/mL) | 0.4 µM (≈ 0.153 µg/mL) | 0.2 µM (≈ 0.0767 µg/mL) | > 150 µM | 108 µM (≈ 41.4 µg/mL) | > 150 µM | > 150 µM | > 150 µM | 0.3 µM (≈ 0.115 µg/mL) | > 150 µM | 13.3 µM (≈ 5.1 µg/mL) | 4 µM (≈ 1.53 µg/mL) | > 150 µM |  |
| CC(C)(O/N=C(\C(=O)N[C@@H]1C(=O)N2C(C(=O)[O-])=C(C[n+]3ccccc3)CS[C@H]12)c1csc(N)n1)C(=O)O [CAZ, ceftazidime] |  |  | > 150 µM | > 150 µM | > 150 µM | 133 µM (≈ 72.7 µg/mL) | > 150 µM | > 150 µM | > 150 µM | > 150 µM | > 150 µM | > 150 µM | > 150 µM | 116 µM (≈ 63.4 µg/mL) | > 150 µM | > 150 µM | > 150 µM |

Source: article PMC10111420, “Optimization of Host Cell-Compatible, Antimicrobial Peptides Effective against Biofilms and Clinical Isolates of Drug-Resistant Bacteria” (ACS Infectious Diseases, 2023)
